Laboratory results as given in paper PMC6422358 (Cell, 2018).

Molecular target: GST-CCNT1 (AA 1–300) (Homo sapiens, UniProt O60563)
Assay: AlphaLISA disruption of CCNT1-AFF4 peptide interaction
Type: binding

Chain of GST-CCNT1 (AA 1–300) (O60563 1-300): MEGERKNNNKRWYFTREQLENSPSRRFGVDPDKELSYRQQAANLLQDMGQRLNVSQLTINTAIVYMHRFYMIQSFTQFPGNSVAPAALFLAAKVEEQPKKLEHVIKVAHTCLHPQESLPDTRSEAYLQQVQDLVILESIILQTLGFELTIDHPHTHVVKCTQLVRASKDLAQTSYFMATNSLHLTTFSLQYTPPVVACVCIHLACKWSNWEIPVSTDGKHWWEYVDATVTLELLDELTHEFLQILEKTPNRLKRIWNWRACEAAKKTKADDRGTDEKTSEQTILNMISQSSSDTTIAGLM

Ki: 3.48 µM
SMILES: COc1cccc(C(=O)/C=C(\O)C(=O)Nc2cc(Cl)ccc2C)c1 [4a, (2Z)-N-(5-Chloro-2-methylphenyl)-2-hydroxy-4-(3-methoxyphenyl)-4-oxo-2butenamide]
